Data taken from ChEMBL document CHEMBL3525920, “CYP4F enzymes are responsible for the elimination of fingolimod (FTY720), a novel treatment of relapsing multiple sclerosis” (Drug Metab Dispos, 2011).

Legend:
[1] = biological target: Cytochrome P450 2B6 (Homo sapiens, UniProt P20813); experiment: Activity at CYP2B6 in human liver microsomes isolated from donors assessed as metabolite formation after 24 mins by HPLC-RA analysis; assay type: ADME; settings: 0.4 h
[2] = biological target: T1, Cytochrome P450 4F2 (Homo sapiens, UniProt P78329); experiment: Activity at human recombinant CYP4F2 expressed in baculovirus-infected BTI-TN-5B1-4 insect cell microsomes assessed as metabolite formation at 50 uM by HPLC-RA analysis in presence of anti-CYP4F2; assay type: ADME; settings: bti-tn-5b1-4, 50 µM
T1 sequence (P78329 whole entry): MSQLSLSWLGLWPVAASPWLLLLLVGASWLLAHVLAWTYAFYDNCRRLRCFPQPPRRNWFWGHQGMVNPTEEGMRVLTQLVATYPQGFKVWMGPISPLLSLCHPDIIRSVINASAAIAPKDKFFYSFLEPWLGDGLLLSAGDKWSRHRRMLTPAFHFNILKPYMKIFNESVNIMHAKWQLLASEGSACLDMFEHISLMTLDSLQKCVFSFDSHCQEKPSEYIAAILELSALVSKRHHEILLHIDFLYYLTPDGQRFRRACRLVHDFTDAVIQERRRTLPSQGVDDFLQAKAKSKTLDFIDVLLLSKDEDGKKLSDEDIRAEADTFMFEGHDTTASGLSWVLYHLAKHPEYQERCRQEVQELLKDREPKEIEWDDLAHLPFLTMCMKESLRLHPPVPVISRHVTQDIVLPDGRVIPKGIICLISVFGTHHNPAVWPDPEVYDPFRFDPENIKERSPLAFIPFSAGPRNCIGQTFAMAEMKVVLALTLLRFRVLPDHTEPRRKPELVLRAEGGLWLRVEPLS

[3] = tested on: Liver microsome; experiment: Drug metabolism in human liver microsomes assessed as total metabolite formation at 1 uM after 20 mins by HPLC-RA analysis in presence of 10 uM CYP3A4 inhibitor ketoconazole; assay type: ADME
[4] = biological target: Aromatase (Homo sapiens, UniProt P11511); experiment: Activity at human recombinant CYP19 expressed in baculovirus-infected BTI-TN-5B1-4 insect cell microsomes assessed as metabolite formation at 5 to 100 uM after 30 mins by HPLC-RA analysis; assay type: ADME; settings: bti-tn-5b1-4, 0.5 h
Sequence of Aromatase (P11511 whole entry): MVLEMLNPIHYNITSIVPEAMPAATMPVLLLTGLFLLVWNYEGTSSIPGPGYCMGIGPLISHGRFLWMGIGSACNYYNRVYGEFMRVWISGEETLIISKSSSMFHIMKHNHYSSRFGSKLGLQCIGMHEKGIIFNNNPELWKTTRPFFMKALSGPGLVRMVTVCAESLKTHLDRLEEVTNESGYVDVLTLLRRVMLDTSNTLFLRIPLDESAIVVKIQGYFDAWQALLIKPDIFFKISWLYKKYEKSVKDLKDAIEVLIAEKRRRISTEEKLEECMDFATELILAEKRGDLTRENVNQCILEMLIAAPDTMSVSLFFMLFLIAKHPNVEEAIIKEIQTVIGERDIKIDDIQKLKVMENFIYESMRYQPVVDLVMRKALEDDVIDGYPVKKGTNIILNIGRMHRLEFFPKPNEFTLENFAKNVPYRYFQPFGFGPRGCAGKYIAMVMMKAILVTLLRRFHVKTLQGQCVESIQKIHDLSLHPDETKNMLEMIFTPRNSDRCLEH

[5] = tested on: Liver microsome; experiment: Drug metabolism in human liver microsomes assessed as metabolite formation at 50 uM treated 15 mins after antibody addition measured after 20 mins by HPLC-RA analysis in presence of CYP2D6-specific monoclonal antibody; assay type: ADME
[6] = biological target: Cytochrome P450 3A4 (Homo sapiens, UniProt P08684); experiment: Activity at CYP3A4 in human liver microsomes isolated from donors assessed as metabolite formation after 24 mins by HPLC-RA analysis; assay type: ADME; settings: 0.4 h
Sequence of Cytochrome P450 3A4 (P08684 whole entry): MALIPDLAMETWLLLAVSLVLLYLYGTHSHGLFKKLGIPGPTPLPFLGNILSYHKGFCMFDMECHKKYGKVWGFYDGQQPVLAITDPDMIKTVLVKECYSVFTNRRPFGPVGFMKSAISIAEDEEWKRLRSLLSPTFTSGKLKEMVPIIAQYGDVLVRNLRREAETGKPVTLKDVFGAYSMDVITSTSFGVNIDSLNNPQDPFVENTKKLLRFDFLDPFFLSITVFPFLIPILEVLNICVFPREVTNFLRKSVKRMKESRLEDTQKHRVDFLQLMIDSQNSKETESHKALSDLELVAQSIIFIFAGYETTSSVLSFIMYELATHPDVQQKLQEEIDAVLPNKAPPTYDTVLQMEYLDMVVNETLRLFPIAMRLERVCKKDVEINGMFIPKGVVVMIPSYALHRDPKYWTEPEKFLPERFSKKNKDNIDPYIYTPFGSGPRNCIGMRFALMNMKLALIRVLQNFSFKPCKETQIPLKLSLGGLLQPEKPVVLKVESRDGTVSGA

[7] = biological target: T2, Cytochrome P450 2C9 (Homo sapiens, UniProt P11712); experiment: Activity at CYP2C9 in human liver microsomes isolated from donors assessed as metabolite formation after 24 mins by HPLC-RA analysis; assay type: ADME; settings: 0.4 h
T2 sequence (P11712 whole entry): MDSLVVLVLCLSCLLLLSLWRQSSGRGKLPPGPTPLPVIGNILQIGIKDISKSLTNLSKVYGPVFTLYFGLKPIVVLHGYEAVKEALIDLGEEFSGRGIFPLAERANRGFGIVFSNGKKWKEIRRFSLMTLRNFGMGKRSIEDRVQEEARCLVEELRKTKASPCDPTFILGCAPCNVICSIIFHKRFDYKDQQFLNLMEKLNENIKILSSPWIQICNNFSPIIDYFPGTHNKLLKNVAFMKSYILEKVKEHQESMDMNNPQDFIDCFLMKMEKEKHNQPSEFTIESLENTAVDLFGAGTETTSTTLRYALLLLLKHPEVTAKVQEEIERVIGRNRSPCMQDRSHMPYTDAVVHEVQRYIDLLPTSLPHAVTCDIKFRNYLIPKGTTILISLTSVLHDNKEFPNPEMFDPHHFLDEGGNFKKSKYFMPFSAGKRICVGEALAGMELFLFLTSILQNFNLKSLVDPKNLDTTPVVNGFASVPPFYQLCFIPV

[8] = biological target: Cytochrome P450 4A11 (Homo sapiens, UniProt Q02928); experiment: Activity at human recombinant CYP4A11 expressed in baculovirus-infected BTI-TN-5B1-4 insect cell microsomes assessed as metabolite formation at 5 to 100 uM after 30 mins by HPLC-RA analysis; assay type: ADME; settings: bti-tn-5b1-4, 0.5 h
[9] = biological target: Cytochrome P450 2J2 (Homo sapiens, UniProt P51589); experiment: Activity at human recombinant CYP2J2 expressed in baculovirus-infected BTI-TN-5B1-4 insect cell microsomes assessed as metabolite formation at 5 to 100 uM after 30 mins by HPLC-RA analysis; assay type: ADME; settings: bti-tn-5b1-4, 0.5 h
Sequence of Cytochrome P450 2J2 (P51589 whole entry): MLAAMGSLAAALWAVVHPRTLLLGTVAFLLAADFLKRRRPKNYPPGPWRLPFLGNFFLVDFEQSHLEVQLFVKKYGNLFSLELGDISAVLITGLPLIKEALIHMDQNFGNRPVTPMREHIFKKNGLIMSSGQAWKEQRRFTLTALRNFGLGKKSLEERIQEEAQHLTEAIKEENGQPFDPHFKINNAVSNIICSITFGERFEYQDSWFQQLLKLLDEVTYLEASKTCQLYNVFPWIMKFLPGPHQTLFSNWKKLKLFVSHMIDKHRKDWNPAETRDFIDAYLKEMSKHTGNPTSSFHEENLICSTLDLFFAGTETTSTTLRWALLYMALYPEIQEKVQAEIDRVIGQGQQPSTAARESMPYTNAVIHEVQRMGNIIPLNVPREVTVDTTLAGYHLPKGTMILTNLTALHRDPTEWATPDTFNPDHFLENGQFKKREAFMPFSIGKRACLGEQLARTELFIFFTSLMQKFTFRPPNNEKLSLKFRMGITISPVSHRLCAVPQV

[10] = tested on: Liver microsome; experiment: Drug metabolism in human liver microsomes assessed as total metabolite formation at 1 to 50 uM after 20 mins by HPLC-RA analysis in presence of CYP3A4 inhibitor ketoconazole; assay type: ADME
[11] = tested on: Liver microsome; experiment: Drug metabolism in human liver microsomes assessed as total metabolite formation at 1 to 50 uM after 20 mins by HPLC-RA analysis in presence of mechanism-based CYP2E1 inhibitor DETC and NADPH; assay type: ADME
[12] = biological target: Cytochrome P450 1A2 (Homo sapiens, UniProt P05177); experiment: Activity at human recombinant CYP1A2 expressed in baculovirus-infected BTI-TN-5B1-4 insect cell microsomes assessed as metabolite formation at 5 to 100 uM after 30 mins by HPLC-RA analysis; assay type: ADME; settings: bti-tn-5b1-4, 0.5 h
Sequence of Cytochrome P450 1A2 (P05177 whole entry): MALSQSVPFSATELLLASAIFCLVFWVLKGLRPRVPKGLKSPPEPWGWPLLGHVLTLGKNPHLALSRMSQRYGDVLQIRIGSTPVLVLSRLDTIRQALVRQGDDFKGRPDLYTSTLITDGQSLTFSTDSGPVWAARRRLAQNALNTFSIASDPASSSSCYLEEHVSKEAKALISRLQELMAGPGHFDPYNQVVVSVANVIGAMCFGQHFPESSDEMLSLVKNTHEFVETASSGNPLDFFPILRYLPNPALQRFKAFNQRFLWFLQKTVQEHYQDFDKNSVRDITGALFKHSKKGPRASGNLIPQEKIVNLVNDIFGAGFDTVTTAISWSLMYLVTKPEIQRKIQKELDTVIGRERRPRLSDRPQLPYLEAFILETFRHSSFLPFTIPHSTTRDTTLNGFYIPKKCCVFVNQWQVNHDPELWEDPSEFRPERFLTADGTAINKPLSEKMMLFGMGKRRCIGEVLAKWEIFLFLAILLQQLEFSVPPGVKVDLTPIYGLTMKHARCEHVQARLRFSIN

[13] = tested on: Liver microsome; experiment: Drug metabolism in human liver microsomes assessed as total metabolite formation at 1 to 50 uM after 20 mins by HPLC-RA analysis in presence of CYP2C19 inhibitor tranylcypromine; assay type: ADME
[14] = biological target: Cytochrome P450 1A1 (Homo sapiens, UniProt P04798); experiment: Activity at human recombinant CYP1A1 expressed in baculovirus-infected BTI-TN-5B1-4 insect cell microsomes assessed as metabolite formation at 5 to 100 uM after 30 mins by HPLC-RA analysis; assay type: ADME; settings: bti-tn-5b1-4, 0.5 h
[15] = biological target: T3, Cytochrome P450 2A6 (Homo sapiens, UniProt P11509); experiment: Activity at human recombinant CYP2A6 expressed in baculovirus-infected BTI-TN-5B1-4 insect cell microsomes assessed as metabolite formation at 5 to 100 uM after 30 mins by HPLC-RA analysis; assay type: ADME; settings: bti-tn-5b1-4, 0.5 h
T3 sequence (P11509 whole entry): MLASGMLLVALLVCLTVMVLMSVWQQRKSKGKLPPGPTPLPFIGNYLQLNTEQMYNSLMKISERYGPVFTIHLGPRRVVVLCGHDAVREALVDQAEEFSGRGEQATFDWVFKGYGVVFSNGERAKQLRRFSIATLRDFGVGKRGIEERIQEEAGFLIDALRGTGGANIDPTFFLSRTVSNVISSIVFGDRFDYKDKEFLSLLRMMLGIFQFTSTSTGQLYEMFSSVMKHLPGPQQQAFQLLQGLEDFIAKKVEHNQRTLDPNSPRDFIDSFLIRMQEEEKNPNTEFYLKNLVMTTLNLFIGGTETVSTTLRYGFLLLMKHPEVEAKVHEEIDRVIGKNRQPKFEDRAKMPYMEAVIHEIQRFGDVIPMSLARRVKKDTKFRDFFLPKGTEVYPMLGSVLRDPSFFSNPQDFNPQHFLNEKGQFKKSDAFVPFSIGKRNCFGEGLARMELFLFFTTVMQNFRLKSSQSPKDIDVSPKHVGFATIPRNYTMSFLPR

[16] = biological target: T4, Cytochrome P450 2E1 (Homo sapiens, UniProt P05181); experiment: Activity at CYP2E1 in human liver microsomes isolated from donors assessed as metabolite formation after 24 mins by HPLC-RA analysis; assay type: ADME; settings: 0.4 h
T4 sequence (P05181 whole entry): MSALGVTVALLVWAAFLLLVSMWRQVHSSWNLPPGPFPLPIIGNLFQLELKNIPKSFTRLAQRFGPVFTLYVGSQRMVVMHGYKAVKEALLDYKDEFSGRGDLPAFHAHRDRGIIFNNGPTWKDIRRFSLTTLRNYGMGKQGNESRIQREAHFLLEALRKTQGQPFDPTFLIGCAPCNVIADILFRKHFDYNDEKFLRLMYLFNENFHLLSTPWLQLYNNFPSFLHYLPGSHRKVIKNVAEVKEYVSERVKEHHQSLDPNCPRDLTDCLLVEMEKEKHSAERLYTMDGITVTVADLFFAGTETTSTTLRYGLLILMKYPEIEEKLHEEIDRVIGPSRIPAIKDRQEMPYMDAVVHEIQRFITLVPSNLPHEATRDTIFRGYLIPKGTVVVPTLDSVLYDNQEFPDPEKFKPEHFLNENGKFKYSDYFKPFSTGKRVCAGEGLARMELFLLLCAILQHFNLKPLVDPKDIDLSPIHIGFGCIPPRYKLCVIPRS

[17] = biological target: Cytochrome P450 3A7 (Homo sapiens, UniProt P24462); experiment: Activity at human recombinant CYP3A7 expressed in baculovirus-infected BTI-TN-5B1-4 insect cell microsomes assessed as metabolite formation at 5 to 100 uM after 30 mins by HPLC-RA analysis; assay type: ADME; settings: bti-tn-5b1-4, 0.5 h
Sequence of Cytochrome P450 3A7 (P24462 whole entry): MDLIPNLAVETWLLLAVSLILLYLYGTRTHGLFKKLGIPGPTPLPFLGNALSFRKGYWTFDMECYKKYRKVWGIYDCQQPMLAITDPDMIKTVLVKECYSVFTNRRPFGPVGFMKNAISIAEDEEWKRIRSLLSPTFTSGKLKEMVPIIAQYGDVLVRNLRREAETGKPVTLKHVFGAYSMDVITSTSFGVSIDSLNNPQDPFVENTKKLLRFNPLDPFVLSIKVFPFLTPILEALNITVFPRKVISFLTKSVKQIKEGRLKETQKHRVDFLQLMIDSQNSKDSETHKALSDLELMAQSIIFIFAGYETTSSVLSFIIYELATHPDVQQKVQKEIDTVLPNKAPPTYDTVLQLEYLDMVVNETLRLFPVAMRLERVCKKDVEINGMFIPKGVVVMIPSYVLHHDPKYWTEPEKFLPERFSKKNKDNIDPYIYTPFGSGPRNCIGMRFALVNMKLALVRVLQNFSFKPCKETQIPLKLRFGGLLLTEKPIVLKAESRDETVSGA

[18] = tested on: Liver microsome; experiment: Drug metabolism in human liver microsomes assessed as metabolite formation at 50 uM treated 15 mins after antibody addition measured after 20 mins by HPLC-RA analysis in presence of CYP2E1-specific monoclonal antibody; assay type: ADME
[19] = biological target: Cytochrome P450 2C19 (Homo sapiens, UniProt P33261); experiment: Activity at human recombinant CYP2C19 expressed in baculovirus-infected BTI-TN-5B1-4 insect cell microsomes assessed as metabolite formation at 5 to 100 uM after 30 mins by HPLC-RA analysis; assay type: ADME; settings: bti-tn-5b1-4, 0.5 h
Sequence of Cytochrome P450 2C19 (P33261 whole entry): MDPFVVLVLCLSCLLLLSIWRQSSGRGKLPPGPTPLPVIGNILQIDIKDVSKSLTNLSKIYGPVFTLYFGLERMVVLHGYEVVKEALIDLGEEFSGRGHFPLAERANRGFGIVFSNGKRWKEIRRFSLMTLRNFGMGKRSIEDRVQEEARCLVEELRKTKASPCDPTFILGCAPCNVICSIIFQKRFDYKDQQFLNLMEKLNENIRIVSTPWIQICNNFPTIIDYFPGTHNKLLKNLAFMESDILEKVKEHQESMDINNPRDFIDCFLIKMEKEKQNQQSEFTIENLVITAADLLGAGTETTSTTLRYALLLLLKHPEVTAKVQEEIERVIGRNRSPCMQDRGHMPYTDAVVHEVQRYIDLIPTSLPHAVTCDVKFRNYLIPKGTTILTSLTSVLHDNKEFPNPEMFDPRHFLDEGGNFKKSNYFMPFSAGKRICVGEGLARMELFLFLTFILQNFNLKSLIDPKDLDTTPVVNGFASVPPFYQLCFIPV

[20] = biological target: T3, Cytochrome P450 2A6; experiment: Activity at CYP2A6 in human liver microsomes isolated from donors assessed as metabolite formation after 24 mins by HPLC-RA analysis; assay type: ADME; settings: 0.4 h
[21] = biological target: T4, Cytochrome P450 2E1; experiment: Activity at human recombinant CYP2E1 expressed in baculovirus-infected BTI-TN-5B1-4 insect cell microsomes assessed as metabolite formation at 5 to 100 uM after 30 mins by HPLC-RA analysis; assay type: ADME; settings: bti-tn-5b1-4, 0.5 h
[22] = Retention time of the compound by symmetry C18 column based LC-MS analysis; assay type: physicochemical
[23] = Activity at CYP4F in human liver microsomes assessed as intrinsic clearance for metabolite formation after 15 mins measured per mg protein by Eadie-Hofstee plot analysis; assay type: ADME; settings: 0.25 h
[24] = tested on: Liver microsome; experiment: Drug metabolism in human liver microsomes assessed as total metabolite formation at 1 to 50 uM after 20 mins by HPLC-RA analysis in presence of CYP2D6 inhibitor quinidine; assay type: ADME
[25] = biological target: T2, Cytochrome P450 2C9; experiment: Activity at human recombinant CYP2C9 expressed in baculovirus-infected BTI-TN-5B1-4 insect cell microsomes assessed as metabolite formation at 5 to 100 uM after 30 mins by HPLC-RA analysis; assay type: ADME; settings: bti-tn-5b1-4, 0.5 h

Sequence of Cytochrome P450 2B6 (P20813 whole entry): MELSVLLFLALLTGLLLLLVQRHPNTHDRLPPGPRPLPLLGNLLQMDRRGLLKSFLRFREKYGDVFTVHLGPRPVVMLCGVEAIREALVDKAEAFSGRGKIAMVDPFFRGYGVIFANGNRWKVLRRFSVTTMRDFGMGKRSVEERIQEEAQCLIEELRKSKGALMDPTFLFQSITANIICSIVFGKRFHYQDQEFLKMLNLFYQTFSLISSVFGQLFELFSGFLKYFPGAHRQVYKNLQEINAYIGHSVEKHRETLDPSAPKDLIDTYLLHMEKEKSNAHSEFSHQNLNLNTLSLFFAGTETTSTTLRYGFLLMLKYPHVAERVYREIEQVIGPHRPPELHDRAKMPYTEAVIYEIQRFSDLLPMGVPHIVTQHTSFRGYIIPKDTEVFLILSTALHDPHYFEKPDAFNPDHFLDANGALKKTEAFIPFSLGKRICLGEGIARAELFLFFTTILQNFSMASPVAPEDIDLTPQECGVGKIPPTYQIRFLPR

Drug metabolism [1]: metabolite_not_detected
Drug metabolism [2]: metabolite_not_detected
Drug metabolism [3]: metabolite_not_detected
Drug metabolism [4]: metabolite_not_detected
Drug metabolism [5]: metabolite_detected
Drug metabolism [6]: metabolite_not_detected
Drug metabolism [7]: metabolite_not_detected
Drug metabolism [8]: metabolite_not_detected
Drug metabolism [9]: metabolite_not_detected
Drug metabolism [10]: metabolite_not_detected
Drug metabolism [11]: metabolite_detected
Drug metabolism [12]: metabolite_not_detected
Drug metabolism [13]: metabolite_detected
Drug metabolism [14]: metabolite_not_detected
Drug metabolism [15]: metabolite_not_detected
Drug metabolism [16]: metabolite_not_detected
Drug metabolism [17]: metabolite_not_detected
Drug metabolism [18]: metabolite_detected
Drug metabolism [19]: metabolite_not_detected
Drug metabolism [20]: metabolite_not_detected
Drug metabolism [21]: metabolite_detected
Retention_time [22]: 42.4 min
CLint [23]: 10 µL/min/mg
Drug metabolism [24]: metabolite_detected
Drug metabolism [25]: metabolite_not_detected
SMILES: CCCCCCCCc1ccc(CC[14C](N)(CO)CO)cc1.Cl
